The values below come from ChEMBL document CHEMBL1156548, “Determination and characterization of new benzimidazoles with activity against Trypanosoma cruzi by UV spectroscopy and HPLC” (Bioorg Med Chem, 2008).

Data set [1] is described as follows: Ionisation constant, pKa of the compound. It is filed as physicochemical.
In data set [2] the test system is Trypanosoma cruzi. The data set is described as follows: Antiparasitic activity against Trypanosoma cruzi MF epimastigotes after 7 days by nephelometry. It is filed as functional, organism-based. The settings on record: 168 h.
A short description of data set [3]: Partition coefficient, log P of the compound. It is filed as physicochemical. The note with it: octanol/water.
In data set [4] the test system is Trypanosoma cruzi. Description: Inhibition of oxygen uptake in Trypanosoma cruzi MF epimastigotes at 300 uM by polarography. It is filed as functional.
The nature of data set [5]: Effective permeability by HPLC-based PAMPA. It is filed as ADME. The settings on record: read-out: permeability. In general terms: The PAMPA barrier holds no transporters, so it reflects passive diffusion.
Data set [6] in a line: Ionisation constant, pKa corresponding to acid proton of […] benzimidazole ring. It is filed as physicochemical.
The nature of data set [7]: Effective permeability by UV-based PAMPA. It is filed as ADME. The settings on record: read-out: permeability.
Data set [8] is described as follows: Ionisation constant, pKa corresponding to weak base of […] benzimidazole ring. It is filed as physicochemical.

Molecules are shown by their SMILES.

For `O=C(c1ccc([N+](=O)[O-])cc1)n1c(-c2ccccc2[N+](=O)[O-])nc2ccccc21`, in data set [1], the pKa – broadly, the pH at which an ionisable group is half protonated – was 4.79. Further, the IC50 (usually the concentration needed to halve the response being measured) in the data set with Trypanosoma cruzi [2] came out at 80 µM. The logP (in general, a log measure of how a compound divides between an organic and an aqueous phase) in data set [3] was 2.8.

Consider `O=C(c1ccccc1)n1c(-c2ccccc2[N+](=O)[O-])nc2ccccc21`, for which testing at 300 µM in the data set on Trypanosoma cruzi [4] gave an inhibition of 20%. Further, the pKa in data set [1] is 4.9. The compound also had an IC50 in the data set on Trypanosoma cruzi [2] of 94 µM. The same compound yielded a logP in data set [3] of 3.1.

`COc1ccc(C(=O)n2c(-c3ccccc3[N+](=O)[O-])nc3ccccc32)cc1`: the pKa in data set [1] is 4.71. In the data set on Trypanosoma cruzi [2], this compound registered an IC50 of 64 µM. For the same compound, the logP in data set [3] was 3.2.

For the compound `O=[N+]([O-])c1ccccc1-c1nc2ccccc2[nH]1`, in the data set on Trypanosoma cruzi [4], testing at 300 µM gave an inhibition of 40%. Further, the Papp in data set [5] was determined as 8 ×10⁻⁶ cm/s; in data set [7] it was 12 ×10⁻⁶ cm/s. The pKa worked out at 11.4 in data set [6] and 5.69 in data set [8]. This compound also yielded an IC50 with Trypanosoma cruzi [2] of 117 µM. In data set [3], the logP worked out at 2.2.

In turn, `O=C(c1ccc(Cl)cc1)n1c(-c2ccccc2[N+](=O)[O-])nc2ccccc21` came in with a pKa in data set [1] of 4.69. The compound further returned a half-inhibitory concentration (IC50) with Trypanosoma cruzi [2] of 78 µM. The same compound registered a logP in data set [3] of 3.6.
